Test results reported in patent publication US20230085307A1, “PYRIDAZINONE COMPOUND AND HERBICIDE” (NISSAN CHEMICAL CORPORATION, priority 2019, published 2023).

Experiments:
barnyard grass [1] = assay: Test Example 4: herbicidal effect by soil treatment (Table 19, symbol H); format: in vivo, barnyard grass (Echinochloa crus-galli); conditions: amount of applied herbicide 320 g/ha
In short: (§1)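 Emulsion of test compound, water-diluted to predetermined amount, sprayed on soil after sowing (seed depth ~1.5 cm, sterilized diluvial soil). Greenhouse, 25–30° C. Effect graded at three weeks post-spray.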

southern crabgrass [2] = assay: Test Example 5: herbicidal effect by foliage application, plastic box (Table 20, symbol F); format: in vivo, southern crabgrass (Digitaria ciliaris); conditions: foliage application, 320 g/ha, three weeks after application
In short: (§2)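 Post-emergence foliar test in sterilized diluvial soil. Compound applied as water-diluted emulsion at a predetermined rate to 14-day-old plants; evaluation at three weeks.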

rice flat sedge = assay: Test Example 3: herbicidal effect by foliage application, Wagner pot (Table 18, symbol E); format: in vivo, rice flat sedge (Cyperus iria); conditions: 320 g/ha
In short: (§3)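 Plants were sown in alluvial soil held under 0.1–0.5 cm standing water and grown 14 days in a greenhouse at 25–30 °C. An emulsifiable formulation, water-diluted to the set dose, was then sprayed onto the foliage, and effects were scored three weeks later using previously defined criteria.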

oval-leafed pondweed = assay: Test Example 1: herbicidal activity, application before weed generation under submerged conditions (Table 16, symbol C); format: in vivo, oval-leafed pondweed (Monochoria vaginalis); conditions: amount of applied herbicide 320 g/ha
In short: (§4)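 Emulsion formulation, water-diluted to set dose, was put onto the flooded surface (4 cm depth, alluvial soil) the same day weeds were sown and 2.5-leaf rice transplanted. After 3 weeks at 25-30 °C under glass, each species was rated 0 (≤5% kill) to 5 (≥90% kill).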

late watergrass = assay: Test Example 1: herbicidal activity, application before weed generation under submerged conditions (Table 16, symbol A); format: in vivo, late watergrass (Echinochloa oryzicola); conditions: amount of applied herbicide 320 g/ha
In short: as §4

persian speedwell [3] = assay: Test Example 4: herbicidal effect by soil treatment (Table 19, symbol R); format: in vivo, Persian speedwell (Veronica persica); conditions: amount of applied herbicide 320 g/ha
In short: as §1

redroot pigweed [4] = assay: Test Example 4: herbicidal effect by soil treatment (Table 19, symbol N); format: in vivo, redroot pigweed (Amaranthus retroflexus); conditions: amount of applied herbicide 320 g/ha
In short: as §1

barnyard grass [5] = assay: Test Example 3: herbicidal effect by foliage application, Wagner pot (Table 18, symbol H); format: in vivo, barnyard grass (Echinochloa crus-galli); conditions: 320 g/ha
In short: as §3

blackgrass [6] = assay: Test Example 4: herbicidal effect by soil treatment (Table 19, symbol J); format: in vivo, blackgrass (Alopecurus myosuroides); conditions: amount of applied herbicide 320 g/ha
In short: as §1

windgrass [7] = assay: Test Example 4: herbicidal effect by soil treatment (Table 19, symbol L); format: in vivo, windgrass (Apera spica-venti); conditions: amount of applied herbicide 320 g/ha
In short: as §1

false cleavers [8] = assay: Test Example 4: herbicidal effect by soil treatment (Table 19, symbol Q); format: in vivo, false cleavers (Galium spurium); conditions: amount of applied herbicide 320 g/ha
In short: as §1

redroot pigweed [9] = assay: Test Example 5: herbicidal effect by foliage application, plastic box (Table 20, symbol N); format: in vivo, redroot pigweed (Amaranthus retroflexus); conditions: foliage application, 320 g/ha, three weeks after application
In short: as §2

velvetleaf [10] = assay: Test Example 4: herbicidal effect by soil treatment (Table 19, symbol M); format: in vivo, velvetleaf (Abutilon theophrasti); conditions: amount of applied herbicide 320 g/ha
In short: as §1

barnyard grass [11] = assay: Test Example 5: herbicidal effect by foliage application, plastic box (Table 20, symbol H); format: in vivo, barnyard grass (Echinochloa crus-galli); conditions: foliage application, 320 g/ha, three weeks after application
In short: as §2

velvetleaf [12] = assay: Test Example 5: herbicidal effect by foliage application, plastic box (Table 20, symbol M); format: in vivo, velvetleaf (Abutilon theophrasti); conditions: foliage application, 320 g/ha, three weeks after application
In short: as §2

blackgrass [13] = assay: Test Example 5: herbicidal effect by foliage application, plastic box (Table 20, symbol J); format: in vivo, blackgrass (Alopecurus myosuroides); conditions: foliage application, 320 g/ha, three weeks after application
In short: as §2

chickweed [14] = assay: Test Example 5: herbicidal effect by foliage application, plastic box (Table 20, symbol P); format: in vivo, common chickweed (Stellaria media); conditions: foliage application, 320 g/ha, three weeks after application
In short: as §2

wild oat [15] = assay: Test Example 5: herbicidal effect by foliage application, plastic box (Table 20, symbol I); format: in vivo, wild oat (Avena fatua); conditions: foliage application, 320 g/ha, three weeks after application
In short: as §2

Japanese bulrush = assay: Test Example 1: herbicidal activity, application before weed generation under submerged conditions (Table 16, symbol B); format: in vivo, Japanese bulrush (Schoenoplectus juncoides); conditions: amount of applied herbicide 320 g/ha
In short: as §4

lambsquarters [16] = assay: Test Example 4: herbicidal effect by soil treatment (Table 19, symbol O); format: in vivo, lambsquarters (Chenopodium album); conditions: amount of applied herbicide 320 g/ha
In short: as §1

green foxtail [17] = assay: Test Example 5: herbicidal effect by foliage application, plastic box (Table 20, symbol G); format: in vivo, green foxtail (Setaria viridis); conditions: foliage application, 320 g/ha, three weeks after application
In short: as §2

Italian ryegrass [18] = assay: Test Example 4: herbicidal effect by soil treatment (Table 19, symbol K); format: in vivo, Italian ryegrass (Lolium multiflorum); conditions: amount of applied herbicide 320 g/ha
In short: as §1

false cleavers [19] = assay: Test Example 5: herbicidal effect by foliage application, plastic box (Table 20, symbol Q); format: in vivo, false cleavers (Galium spurium); conditions: foliage application, 320 g/ha, three weeks after application
In short: as §2

persian speedwell [20] = assay: Test Example 5: herbicidal effect by foliage application, plastic box (Table 20, symbol R); format: in vivo, Persian speedwell (Veronica persica); conditions: foliage application, 320 g/ha, three weeks after application
In short: as §2

lambsquarters [21] = assay: Test Example 5: herbicidal effect by foliage application, plastic box (Table 20, symbol O); format: in vivo, lambsquarters (Chenopodium album); conditions: foliage application, 320 g/ha, three weeks after application
In short: as §2

windgrass [22] = assay: Test Example 5: herbicidal effect by foliage application, plastic box (Table 20, symbol L); format: in vivo, windgrass (Apera spica-venti); conditions: foliage application, 320 g/ha, three weeks after application
In short: as §2

wild oat [23] = assay: Test Example 4: herbicidal effect by soil treatment (Table 19, symbol I); format: in vivo, wild oat (Avena fatua); conditions: amount of applied herbicide 320 g/ha
In short: as §1

chickweed [24] = assay: Test Example 4: herbicidal effect by soil treatment (Table 19, symbol P); format: in vivo, common chickweed (Stellaria media); conditions: amount of applied herbicide 320 g/ha
In short: as §1

southern crabgrass [25] = assay: Test Example 4: herbicidal effect by soil treatment (Table 19, symbol F); format: in vivo, southern crabgrass (Digitaria ciliaris); conditions: amount of applied herbicide 320 g/ha
In short: as §1

Italian ryegrass [26] = assay: Test Example 5: herbicidal effect by foliage application, plastic box (Table 20, symbol K); format: in vivo, Italian ryegrass (Lolium multiflorum); conditions: foliage application, 320 g/ha, three weeks after application
In short: as §2

Chinese sprangletop = assay: Test Example 3: herbicidal effect by foliage application, Wagner pot (Table 18, symbol D); format: in vivo, chinese sprangletop (Leptochloa chinensis); conditions: 320 g/ha
In short: as §3

green foxtail [27] = assay: Test Example 4: herbicidal effect by soil treatment (Table 19, symbol G); format: in vivo, green foxtail (Setaria viridis); conditions: amount of applied herbicide 320 g/ha
In short: as §1

SMILES: Cc1ccc2c(-c3c(O)c(C)nn(C)c3=O)c(-c3ccc4c(c3)OCCO4)sc2c1 [3-059]
- H: barnyard grass, herbicidal effect grade (barnyard grass [1]): 0 (Herbicidal rate of 5% or less (almost no effect))
- F: southern crabgrass, herbicidal effect grade (southern crabgrass [2]): 0 (Herbicidal rate of 5% or less (almost no effect))
- herbicidal effect on rice flat sedge (E) (rice flat sedge): 4 (Herbicidal rate of 70% or more and less than 90%)
- Herbicidal effect, C: oval-leafed pondweed (oval-leafed pondweed): 2 (Herbicidal rate of 20% or more and less than 40%)
- Herbicidal effect, A: late watergrass (late watergrass): 2 (Herbicidal rate of 20% or more and less than 40%)
- R: persian speedwell, herbicidal effect grade (persian speedwell [3]): 5 (Herbicidal rate of 90% or more (almost completely withered))
- N: redroot pigweed, herbicidal effect grade (redroot pigweed [4]): 0 (Herbicidal rate of 5% or less (almost no effect))
- herbicidal effect on barnyard grass (H) (barnyard grass [5]): 4 (Herbicidal rate of 70% or more and less than 90%)
- J: blackgrass, herbicidal effect grade (blackgrass [6]): 0 (Herbicidal rate of 5% or less (almost no effect))
- L: windgrass, herbicidal effect grade (windgrass [7]): 0 (Herbicidal rate of 5% or less (almost no effect))
- Q: false cleavers, herbicidal effect grade (false cleavers [8]): 0 (Herbicidal rate of 5% or less (almost no effect))
- N: redroot pigweed, herbicidal effect grade (redroot pigweed [9]): 0 (Herbicidal rate of 5% or less (almost no effect))
- M: velvetleaf, herbicidal effect grade (velvetleaf [10]): 0 (Herbicidal rate of 5% or less (almost no effect))
- H: barnyard grass, herbicidal effect grade (barnyard grass [11]): 0 (Herbicidal rate of 5% or less (almost no effect))
- M: velvetleaf, herbicidal effect grade (velvetleaf [12]): 0 (Herbicidal rate of 5% or less (almost no effect))
- J: blackgrass, herbicidal effect grade (blackgrass [13]): 0 (Herbicidal rate of 5% or less (almost no effect))
- P: chickweed, herbicidal effect grade (chickweed [14]): 5 (Herbicidal rate of 90% or more (almost completely withered))
- I: wild oat, herbicidal effect grade (wild oat [15]): 0 (Herbicidal rate of 5% or less (almost no effect))
- Herbicidal effect, B: Japanese bulrush (Japanese bulrush): 1 (Herbicidal rate of 5% or more and less than 20%)
- O: lambsquarters, herbicidal effect grade (lambsquarters [16]): 0 (Herbicidal rate of 5% or less (almost no effect))
- G: green foxtail, herbicidal effect grade (green foxtail [17]): 0 (Herbicidal rate of 5% or less (almost no effect))
- K: Italian ryegrass, herbicidal effect grade (Italian ryegrass [18]): 0 (Herbicidal rate of 5% or less (almost no effect))
- Q: false cleavers, herbicidal effect grade (false cleavers [19]): 2 (Herbicidal rate of 20% or more and less than 40%)
- R: persian speedwell, herbicidal effect grade (persian speedwell [20]): 5 (Herbicidal rate of 90% or more (almost completely withered))
- O: lambsquarters, herbicidal effect grade (lambsquarters [21]): 0 (Herbicidal rate of 5% or less (almost no effect))
- L: windgrass, herbicidal effect grade (windgrass [22]): 0 (Herbicidal rate of 5% or less (almost no effect))
- I: wild oat, herbicidal effect grade (wild oat [23]): 0 (Herbicidal rate of 5% or less (almost no effect))
- P: chickweed, herbicidal effect grade (chickweed [24]): 0 (Herbicidal rate of 5% or less (almost no effect))
- F: southern crabgrass, herbicidal effect grade (southern crabgrass [25]): 0 (Herbicidal rate of 5% or less (almost no effect))
- K: Italian ryegrass, herbicidal effect grade (Italian ryegrass [26]): 4 (Herbicidal rate of 70% or more and less than 90%)
- herbicidal effect on Chinese sprangletop (D) (Chinese sprangletop): 0 (Herbicidal rate of 5% or less (almost no effect))
- G: green foxtail, herbicidal effect grade (green foxtail [27]): 0 (Herbicidal rate of 5% or less (almost no effect))
